Like-named read-outs stand apart in the source and are kept apart here. Blank lines part the entries; values can stand above or below the molecule they belong to.
Columns and labels:
[1] = cited from earlier work
Encapsulation efficiency = format: physicochemical
Method: (§1) Likewise, when chylomicron was stored at pH 2.0, 3.5, 6.0, 6.8 and 7.4 for 1, 2, 4, 6, 12 or 24 h, the stability of solanorubin, octohydrogenosolanorubin and hexahydrogenosolanorubin was maintained. The encapsulation efficiency of solanorubin in chylomicron was assessed to be approximately 80%.
(§2) The average size of the micelle, based on DLS and TEM analyses, was approximately 7.5 nm, with spherical shape and transparent appearance. […] Also, the mean values of solanorubin, octohydrogenosolanorubin and hexahydrogenosolanorubin were ranged from 0.34-0.38 mg/mL, 0.03-0.04 mg/mL and 0.03-0.04 mg/mL, respectively, during storage or heating under the same condition. […] The encapsulation efficiency of solanorubin in micelle was determined to be about 78%.

[2] = Stability at pH 2.0, 3.5, 6.0, 6.8 and 7.4; format: physicochemical; settings: pH 2.0, 3.5, 6.0, 6.8 and 7.4 for 1, 2, 4, 6, 12 or 24 h; for Change in concentration in micelles at different pH: micelle
Method: as §1, §2

[3] = Pharmacokinetic study of the chylomicron and micelle compositions in rats (gavage and i.v.); format: in vivo, male Sprague-Dawley rats; settings: rat
Method: The pharmacokinetic properties of the pharmaceutical composition prepared in Example 1 and the pharmaceutical composition prepared in Example 2 were assessed in male Sprague-Dawley rats.
A total of 24 rats (all rats with body weight of about 280 g each) were divided into two groups with 12 each, one received oral administration (gavage) while the other received intravenous (i.v.) injection.
The pharmaceutical composition in Example 1 and the pharmaceutical composition in Example 2 were administered via gavage and intravenous (IV) injection. An equivalent of 1.43 mg/kg of solanorubin was given by IV route (one-tenth of oral dosage) and an equivalent of 14.3 mg/kg of solanorubin was administered orally.
Blood samples were collected via the tail vein of the rats at the following time intervals: 2 minutes, 5 minutes, 10 minutes, 30 minutes, 1 hour, 2 hours, 4 hours, 8 hours, 24 hours, 48 hours and 72 hours after the composition was administered.
Pharmacokinetic study was carried out using the WinNonlin software system (Pharsight Co, Mountain View, Calif., USA) by non-compartmental model. The area under the drug concentration-time curve (AUC) was used to determine total amount of all-trans-solanorubin, cis-solanorubin, octohydrogenosolanorubin and hexahydrogenosolanorubin to reach the systematic circulation. Some other kinetic parameters such as Cmax, Tmax, and t1/2 were measured as well. The absolute bioavailability of trans-solanorubin, cis-solanorubin, octohydrogenosolanorubin and hexahydrogenosolanorubin was calculated using the following formula: […]
All the data were subjected to analysis of variance and Duncan's multiple range test using Statistical Analysis Software (SAS)^16 for statistical significance at P<0.05.

[4] = rat, Faisal et al. J. Pharm. Pharmacol. 2010, cited from earlier work
[5] = Stability during storage at 4° C. or 25° C. for 3 months or heating at 100° C. for 4 h; format: physicochemical; settings: 4° C. or 25° C. for 3 months or 100° C. for 4 h
Method: as §1, §2

[6] = Pre-experiments on saturation of absorption (dose selection); format: in vivo; settings: several pre-experiments
[7] = male, Sprague-Dawley, in vivo, po, 14.3 mg/kg

SMILES: CC(C)=CCC/C(C)=C/C=C/C(C)=C/C=C/C(C)=C/C=C/C=C(C)/C=C/C=C(C)/C=C/C=C(\C)CCC=C(C)C [Solanorubin, solanorubin]
Solubility in water [1]: insoluble in water
Solubility in water ([1]; listed as solanorubin): practically insoluble in water
Encapsulation efficiency (Encapsulation efficiency; solanorubin in chylomicron): approximately 80%
Encapsulation efficiency (Encapsulation efficiency; solanorubin in micelle): about 78%
Stability of the carotenoid in chylomicron at different pH ([2]; chylomicron): maintained
Change in concentration in micelles at different pH [2]: only a minor change
Cmax of IV administered micelle composition, fold higher than IV administered chylomicron composition ([3]; IV 1.43 mg/kg BW): 7.8 fold
AUC ([3]; male, Sprague-Dawley, in vivo, IV 1.43 mg/kg BW, read-out: AUC higher for IV administered micelle composition compared to IV administered chylomicron composition (difference) (converted)): 3380 ng·h/mL
bioavailability ([3]; male, Sprague-Dawley, in vivo, 14.3 mg/kg): 9.5%
bioavailability ([3]; male, Sprague-Dawley, in vivo, 14.3 mg/kg, Bioavailability): 6.8%
AUC ([3]; male, Sprague-Dawley, in vivo, iv, 1.43 mg/kg): 12200 ± 1400 ng·h/mL
AUC ([3]; male, Sprague-Dawley, in vivo, iv, 1.43 mg/kg, AUC): 8830 ng·h/mL
Tmax ([3]; male, Sprague-Dawley, in vivo, iv, 1.43 mg/kg, Tmax): 0.0333 h
AUC [3, 7]: 8380 ng·h/mL
Cmax [3, 7]: 180 ng/mL
Tmax [3, 7]: 4 h
t1/2 [3, 7]: 33.63 ± 5.43 h
AUC ([3]; male, Sprague-Dawley, in vivo, po, 14.3 mg/kg, AUC): 8270 ng·h/mL
Cmax ([3]; male, Sprague-Dawley, in vivo, po, 14.3 mg/kg, Cmax): 270 ng/mL
Tmax ([3]; male, Sprague-Dawley, in vivo, po, 14.3 mg/kg, Tmax): 2 h
half-life ([3]; male, Sprague-Dawley, in vivo, po, 14.3 mg/kg, t1/2): 28.9 ± 3.3 h
Bioavailability of solanorubin not encapsulated / from natural sources [4]: about 1.85%
Bioavailability of solanorubin not encapsulated / from natural sources ([4]; listed as non-encapsulated solanorubin): 1.85%
Stability of the carotenoid in chylomicron (change in concentration) ([5]; chylomicron): high stability
Mean concentration during storage or heating ([5]; micelle): 340000 to 380000 ng/mL

Change in concentration in micelles at different pH [2]: only a minor change
AUC higher for IV administered micelle composition compared to IV administered chylomicron composition (difference) ([3]; in vivo, iv, 1.43 mg/kg): 311 µg·min/mL
Cmax of IV administered micelle composition, fold higher than IV administered chylomicron composition ([3]; in vivo, iv, 1.43 mg/kg): 5.9 fold
Cmax ([3]; in vivo, po, 14.3 mg/kg): 60 ng/mL
SMILES: CC(C)=CCC/C(C)=C/CC/C(C)=C/CC/C(C)=C/C=C/C=C(\C)CC/C=C(\C)CC/C=C(\C)CCC=C(C)C [Octohydrogenosolanorubin, octohydrogenosolanorubin]

Change in concentration in micelles at different pH [2]: only a minor change
AUC higher for IV administered micelle composition compared to IV administered chylomicron composition (difference) ([3]; in vivo, iv, 1.43 mg/kg): 544 µg·min/mL
Cmax of IV administered micelle composition, fold higher than IV administered chylomicron composition ([3]; in vivo, iv, 1.43 mg/kg): 9.6 fold
Tmax ([3]; in vivo, iv, 1.43 mg/kg): 0.033 h
SMILES: CC(C)=CCCC(C)=CCCC(C)=CC=CC(C)=CC=CC=C(C)CCC=C(C)CCC=C(C)CCC=C(C)C [Hexahydrogenosolanorubin, hexahydrogenosolanorubin]

SMILES: CC(C)=CCC/C(C)=C/C=C/C(C)=C/C=C/C(C)=C/C=C/C=C(C)/C=C/C=C(C)/C=C/C=C(\C)CCC=C(C)C [lycopene]
Dose above which saturation of absorption may occur [6]: higher than 14.3 mg/kg BW
